Results from patent US12077503B2, “Substituted cyclic amides and their use as herbicides” (FMC CORPORATION, priority 2015, dated 2024).
Like-named read-outs stand apart in the source and are kept apart here.

Legend:
Experiment in all cases: Test A preemergence
Format in all cases: in vivo
[1] = test system: pigweed (Amaranthus retroflexus); details: Amaranthus retroflexus, pre-emergence, 240 h; for pest or weed control at 125 g/ha: 125 g ai/ha; for pest or weed control at 500 g/ha: 500 g ai/ha
[2] = test system: ragweed (common ragweed, Ambrosia elatior); details: Ambrosia artemisiifolia, pre-emergence, 240 h; for pest or weed control at 125 g/ha: 125 g ai/ha; for pest or weed control at 500 g/ha: 500 g ai/ha
Summary of the method: (§1)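 Ratings of 0 (no effect) to 100 (complete control) come from visual comparison with untreated controls roughly 10 d after treatment. Test chemicals, formulated in a non-phytotoxic solvent mixture with surfactant, were applied either as a preemergence directed soil spray on seeded soil or postemergence to one- to two-leaf plants 2 to 10 cm tall.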

[3] = test system: ryegrass, Italian (Italian ryegrass, Lolium multiflorum); details: Lolium multiflorum, pre-emergence, 240 h; for pest or weed control at 125 g/ha: 125 g ai/ha; for pest or weed control at 500 g/ha: 500 g ai/ha
Summary of the method: as §1

[4] = test system: barnyardgrass (Echinochloa crus-galli); details: Echinochloa crus-galli, pre-emergence, 240 h; for pest or weed control at 125 g/ha: 125 g ai/ha; for pest or weed control at 500 g/ha: 500 g ai/ha
Summary of the method: as §1

[5] = test system: giant foxtail (Setaria faberii); details: Setaria faberi, pre-emergence, 240 h; for pest or weed control at 125 g/ha: 125 g ai/ha; for pest or weed control at 500 g/ha: 500 g ai/ha
Summary of the method: as §1

[6] = preemergence, 0 to 100 scale where 0 is no effect and 100 is complete control, read-out: Pigweed plant response rating
[7] = Preemergence, visual injury vs untreated controls after approximately 10 d, read-out: Pigweed plant response rating (0 to 100 scale where 0 is no effect and 100 is complete control)
[8] = preemergence, 0 to 100 scale where 0 is no effect and 100 is complete control, read-out: Ragweed plant response rating
[9] = Preemergence, visual injury vs untreated controls after approximately 10 d, read-out: Ragweed plant response rating (0 to 100 scale where 0 is no effect and 100 is complete control)
[10] = preemergence, 0 to 100 scale where 0 is no effect and 100 is complete control, read-out: Ryegrass, Italian plant response rating
[11] = Preemergence, visual injury vs untreated controls after approximately 10 d, read-out: Ryegrass, Italian plant response rating (0 to 100 scale where 0 is no effect and 100 is complete control)
[12] = preemergence, 0 to 100 scale where 0 is no effect and 100 is complete control, read-out: Barnyardgrass plant response rating
[13] = Preemergence, visual injury vs untreated controls after approximately 10 d, read-out: Barnyardgrass plant response rating (0 to 100 scale where 0 is no effect and 100 is complete control)
[14] = preemergence, 0 to 100 scale where 0 is no effect and 100 is complete control, read-out: Foxtail, Giant plant response rating
[15] = Preemergence, visual injury vs untreated controls after approximately 10 d, read-out: Foxtail, Giant plant response rating (0 to 100 scale where 0 is no effect and 100 is complete control)
[16] = preemergence, visual rating after approx. 10 d, 0 to 100 scale where 0 is no effect and 100 is complete control, read-out: Plant response rating, Pigweed
[17] = preemergence, 0 to 100 scale, 0 = no effect, 100 = complete control, read-out: Plant response rating, Pigweed
[18] = preemergence, visual rating after approx. 10 d, 0 to 100 scale where 0 is no effect and 100 is complete control, read-out: Plant response rating, Ragweed
[19] = preemergence, 0 to 100 scale, 0 = no effect, 100 = complete control, read-out: Plant response rating, Ragweed
[20] = preemergence, visual rating after approx. 10 d, 0 to 100 scale where 0 is no effect and 100 is complete control, read-out: Plant response rating, Ryegrass, Italian
[21] = preemergence, visual rating after approx. 10 d, 0 to 100 scale where 0 is no effect and 100 is complete control, read-out: Plant response rating, Barnyardgrass
[22] = preemergence, 0 to 100 scale, 0 = no effect, 100 = complete control, read-out: Plant response rating, Barnyardgrass
[23] = preemergence, visual rating after approx. 10 d, 0 to 100 scale where 0 is no effect and 100 is complete control, read-out: Plant response rating, Foxtail, Giant
[24] = preemergence, 0 to 100 scale, 0 = no effect, 100 = complete control, read-out: Plant response rating, Foxtail, Giant
[25] = preemergence, visual injury rating, 0 to 100 scale where 0 is no effect and 100 is complete control, approximately 10 d, read-out: Pigweed plant response rating
[26] = preemergence, visual injury rating, 0 to 100 scale where 0 is no effect and 100 is complete control, approximately 10 d, read-out: Ragweed plant response rating
[27] = preemergence, visual injury rating, 0 to 100 scale where 0 is no effect and 100 is complete control, approximately 10 d, read-out: Ryegrass, Italian plant response rating
[28] = preemergence, visual injury rating, 0 to 100 scale where 0 is no effect and 100 is complete control, approximately 10 d, read-out: Barnyardgrass plant response rating
[29] = preemergence, visual injury rating, 0 to 100 scale where 0 is no effect and 100 is complete control, approximately 10 d, read-out: Foxtail, Giant plant response rating

Structure (SMILES) | pest or weed control at 125 g/ha [1, 16] [%] | pest or weed control at 500 g/ha [1, 17] [%] | pest or weed control at 125 g/ha [2, 18] [%] | pest or weed control at 500 g/ha [2, 19] [%] | pest or weed control at 125 g/ha [3, 20] [%] | pest or weed control at 125 g/ha [4, 21] [%] | pest or weed control at 500 g/ha [4, 22] [%] | pest or weed control at 125 g/ha [5, 23] [%] | pest or weed control at 500 g/ha [5, 24] [%] | pest or weed control at 125 g/ha [1, 25] [%] | pest or weed control at 500 g/ha [1, 6] [%] | pest or weed control at 125 g/ha [2, 26] [%] | pest or weed control at 500 g/ha [2, 8] [%] | pest or weed control at 125 g/ha [3, 27] [%] | pest or weed control at 500 g/ha [3, 10] [%] | pest or weed control at 125 g/ha [4, 28] [%] | pest or weed control at 500 g/ha [4, 12] [%] | pest or weed control at 125 g/ha [5, 29] [%] | pest or weed control at 500 g/ha [5, 14] [%] | also measured
CN1CC[C@H](c2cccc(Cl)c2)[C@@H](C(=O)Nc2ccccc2F)C1=O [Compound 922] | – | – | – | – | – | – | – | – | – | – | – | – | – | – | – | – | – | – | – | pest or weed control at 125 g/ha [1, 6]: 0%; pest or weed control at 500 g/ha [1, 7]: 0%; pest or weed control at 125 g/ha [2, 8]: 0%; pest or weed control at 500 g/ha [2, 9]: 0%; pest or weed control at 125 g/ha [3, 10]: 20%; pest or weed control at 500 g/ha [3, 11]: 40%; pest or weed control at 125 g/ha [4, 12]: 60%; pest or weed control at 500 g/ha [4, 13]: 80%; pest or weed control at 125 g/ha [5, 14]: 90%; pest or weed control at 500 g/ha [5, 15]: 90%
CN1C[C@H](c2cc(F)cc(F)c2)[C@@H](C(=O)Nc2c(F)cccc2F)C1=O [Compound 759] | 0 | 0 | 0 | 0 | 0 | 90 | 100 | 70 | 100 | – | – | – | – | – | – | – | – | – | – | –
CN1C[C@H](c2cccc(C(F)(F)F)c2)[C@@H](C(=O)Nc2ccc(F)cc2C(F)(F)F)C1=O [Compound 1250] | – | – | – | – | – | – | – | – | – | 30 | 30 | 0 | 0 | 50 | 50 | 100 | 100 | 100 | 100 | –
CCc1ccc([C@H]2CNC(=S)[C@@H]2C(=O)Nc2cccc(F)c2C)cc1 [Compound 761] | 0 | 0 | 0 | 0 | 0 | 90 | 100 | 60 | 90 | – | – | – | – | – | – | – | – | – | – | –
O=C1NC[C@H](c2ccc3c(c2)OCO3)[C@H]1C(=O)Nc1ccccc1F [Compound 767] | 0 | 0 | 0 | 0 | 0 | 90 | 90 | 0 | 90 | – | – | – | – | – | – | – | – | – | – | –
Cc1cc([C@H]2CNC(=O)[C@@H]2C(=O)Nc2ccccc2S(C)(=O)=O)ccc1Cl [Compound 1246] | – | – | – | – | – | – | – | – | – | 0 | 0 | 40 | 60 | 0 | 50 | 60 | 80 | 50 | 70 | –
CN1C[C@H](c2cc(F)cc(F)c2)[C@@H](C(=O)Nc2ccc(F)cc2C(F)(F)F)C1=O [Compound 758] | 0 | 20 | 0 | 0 | 30 | 100 | 100 | 100 | 100 | – | – | – | – | – | – | – | – | – | – | pest or weed control at 500 g/ha ([3]; preemergence, 0 to 100 scale, 0 = no effect, 100 = complete control, read-out: Plant response rating, Ryegrass, Italian): 70%
CN1C[C@H](c2cc(F)c(C(F)(F)F)c(F)c2)[C@@H](C(=O)Nc2ccccc2F)C1=O [Compound 899] | – | – | – | – | – | – | – | – | – | – | – | – | – | – | – | – | – | – | – | pest or weed control at 125 g/ha [1, 6]: 20%; pest or weed control at 500 g/ha [1, 7]: 40%; pest or weed control at 125 g/ha [2, 8]: 20%; pest or weed control at 500 g/ha [2, 9]: 60%; pest or weed control at 125 g/ha [3, 10]: 30%; pest or weed control at 500 g/ha [3, 11]: 20%; pest or weed control at 125 g/ha [4, 12]: 90%; pest or weed control at 500 g/ha [4, 13]: 90%; pest or weed control at 125 g/ha [5, 14]: 90%; pest or weed control at 500 g/ha [5, 15]: 90%
Cc1cc(F)cc([C@H]2CNC(=O)[C@@H]2C(=O)Nc2cccc(F)c2C)c1 [Compound 1308] | – | – | – | – | – | – | – | – | – | 0 | 20 | 0 | 70 | 0 | 0 | 90 | 90 | 90 | 90 | –
Cc1cc([C@H]2CNC(=O)[C@@H]2C(=O)Nc2ccc(F)cc2F)ccc1Cl [Compound 791] | 0 | – | 0 | – | 0 | 90 | – | 50 | – | – | – | – | – | – | – | – | – | – | – | pest or weed control at 500 g/ha [1, 7]: 0%; pest or weed control at 500 g/ha [2, 9]: 40%; pest or weed control at 500 g/ha [3, 11]: 20%; pest or weed control at 500 g/ha [4, 13]: 90%; pest or weed control at 500 g/ha [5, 15]: 90%
Cc1cccc([C@H]2CN(C)C(=O)[C@@H]2C(=O)Nc2cccc(F)c2C)c1 [Compound 1233] | – | – | – | – | – | – | – | – | – | 40 | 40 | 30 | 50 | 40 | 70 | 90 | 90 | 90 | 90 | –
